Where a name gives a salt, the structure may show the parent alone. Read-outs that look alike come from different tables or passages of the source.
Key:
[1] = tested on: human blood platelet aggregation, ADP-induced; test: Inhibition of ADP-induced human blood platelet aggregation (aggregometry, platelet-rich plasma); assay type: cell-based; details: for inhibition at 50 µM: 50 μM evaluant, % reduction in maximal aggregation intensity vs control; for inhibition at 100 µM: read-out: % inhibition of aggregation, ADP-induced; for inhibition at 500 µM: 500 μM evaluant
Description: (§1) Adenosine diphosphate (ADP) used to induce platelet aggregation was employed as the sodium salt. A 10 mM stock solution was prepared fresh before each use in modified Tyrode's buffer and working dilutions were prepared with modified Tyrode's buffer immediately prior to use. The buffer contained NaCl (137.00 mM), KCl (2.70 mM), NaHCO3 (11.90 mM), NaH2 PO4.H2 O (0.36 mM) and glucose (5.60 mM) in redistilled water. Adjustment to pH 7.4 was effected by addition of 1N HCl. A solution of highly purified human α-thrombin (10,624 units/ml) wss stored at -70° C. in 10 μl aliquots. The latter were diluted with modified Tyrode's buffer to a concentration of 10.0 units/ml immediately prior to use.
(§2) Venous blood for the examples set forth below was collected in plastic syringes from healthy male volunteers (aged 21-30 years) who had fasted overnight and had abstained from all medications, alcohol, tobacco and caffeine for a period of at least one week prior to donations. In experiments employing ADP as the aggregation-inducing agent, the blood was transferred into siliconized centrifuge tubes containing 3.2% sodium citrate (blood/citrate ratio 8:1); in thrombin-induced aggregations, 3.8% sodium citrate (blood/citrate ratio 9:1) was used. The cirtrated whole blood was centrifuged at 120×g for 15 minutes at 23° C., yielding platelet-rich plasma (PRP); platelet-poor plasma (PPP) was obtained by centrifugation of citrated whole blood at 1,100×g for […] at 23° C. The platelet count of PRP was determined and adjusted to a final count of 300,000 platelets per mm^3 by dilution with autologous PPP. (Occasionally, blood from a given donor yielded PRP with a count lower than the stipulated figure; however, this was usually greater than 285,000, and never less than 250,000 platelets per mm^3.) The plasma so obtained was transferred in 1.2-ml aliquots to siliconized glass tubes, by means of a siliconized Pasteur pipet. In order to maintain plasma pH in the appropriate range, the air in the tubes was displaced gently (1 minute) with a 5% CO2 -95% air (v/v) mixture and the tubes sealed with Parafilm according to the method of Han et al, Br. J. Haematol. Vol. 26, pages 373-389 (1974). The plasma was maintained at 37° C. in a water bath until used in the aggregation experiments.
Assays of platelet aggregation was performed at least in duplicate, using plasma acquired from different donors, employing a method developed by Quintana et al (Quintana et al, Thromb. Res., Vol. 22, pages 665-680 (1981); Quintana et al, Thromb. Res., Vol. 20, pages 405-415 (1980) (cf. Born, Nature, Vol. 194, pages 927-929 (1962) and Mustard et al, J. Lab. Clin. Med., Vol. 64, pages 548-559 (1964)).
Initially, in each experiment, 0.45-ml aliquots of PRP were placed in siliconized cuvettes and stirred (1,100 rpm) in the aggregometer at 37° C. to ascertain the absence of spontaneous aggregation. Appropriate ADP solutions (50 μl) were subsequently injected using a Hamilton microliter syringe to determine the minimal concentration eliciting maximal biphasic aggregation. This ranged from 2 μM to 8 μM (cf. Quintana et al, Thromb. Res., Vol. 22, pages 665-680 (1981); Quintana et al, Thromb. Res., Vol. 20, pages 405-415 (1980)). In each case, the concentration of ADP so determined was used in eliciting aggregation throughout each specific set of aggregometric evaluations. In all thrombin-induced aggregation experiments the same stimulus was applied; this constituted injection of 50 μl of the solution containing 10.0 units of α-thrombin/ml (affording a final concentration of 1.0 unit of α-thrombin/ml PRP).
0.5 μl of a solution of the evaluant compound in redistilled 95% ethanol was injected into a stirred (1,100 rpm) 0.45-ml aliquot of plasma in a siliconized cuvette in the aggregometer-well (37° C.). After 15 seconds, the cuvette was transferred to an incubator (also at 37° C.) and the contents held at this temperature, without stirring, until 2 minutes post-injection. […]

[2] = tested on: human blood platelet aggregation, thrombin-induced; test: Inhibition of thrombin-induced human blood platelet aggregation (aggregometry, platelet-rich plasma); assay type: cell-based; details: for % inhibition of aggregation, thrombin-induced: 50 μM evaluant, human PRP, 1.0 unit α-thrombin/ml PRP
Description: as §1
as §2, with “experiments. […]” for “experiments.”
Initially, in each experiment, 0.45-ml aliquots of PRP were placed in siliconized cuvettes and stirred (1,100 rpm) in the aggregometer at 37° C. to ascertain the absence of spontaneous aggregation. […] In each case, the concentration of ADP so determined was used in eliciting aggregation throughout each specific set of aggregometric evaluations. […]

[3] = literature; cited from earlier work
[4] = tested on: patient's platelets; details: Walder et al; cited from earlier work
[5] = tested on: platelet aggregation, ADP-induced; details: cited from earlier work
[6] = Platelet, 100 μM evaluant, human PRP

c1ccc2c(c1)CCN(Cc1ccc(CN3CCc4ccccc4C3)cc1)C2 [Example 2, α,α'-Bis(1,2,3,4-tetrahydroisoquinolino)-p-xylene Dihydrobromide]
inhibition at 50 µM ([1]; Platelet, human PRP): 0%
ADP-induced platelet aggregation inhibition, in words ([1]; Table 1 footnote 5): inactive

Oc1ccc2c(c1)CCCN2Cc1ccc(CN2CCCc3cc(O)ccc32)cc1 [Example 5, α,α'-Bis(6-hydroxy-1,2,3,4-tetrahydroquinolino)-p-xylene Dihydrobromide]
inhibition at 50 µM ([1]; Platelet, human PRP): 21.5%

Oc1ccc2c(c1)CCCN2CCCCCCCCCCN1CCCc2cc(O)ccc21 [Example 7, 1,10-Bis(6-hydroxy-1,2,3,4-tetrahydroquinolino)decane Dihydriodide]
inhibition at 50 µM ([1]; Platelet, human PRP): 25.9%

CCCCCCCCCCN1CCCc2cc(O)ccc21 [Example 9, 1-Decyl-6-hydroxy-1,2,3,4-tetrahydroquinoline Hydriodide]
inhibition at 50 µM ([1]; Platelet, human PRP): 33%

CCCCCCN1CCCc2cc(O)ccc21 [Example 11, 1-Hexyl-6-hydroxy-1,2,3,4-tetrahydroquinoline Hydriodide]
inhibition at 50 µM ([1]; Platelet, human PRP): 37.2%
inhibition at 100 µM [1, 6]: 45.9%

CCCCCCCCCCCCCCN1CCCc2cc(O)ccc21 [Example 12, 1-Tetradecyl-6-hydroxy-1,2,3,4-tetrahydroquinoline Hydriodide]
inhibition at 50 µM ([1]; Platelet, human PRP): 0%

CCCCN(CCCC)C(=O)c1cccnc1 [Example 13, N,N--Dibutylnicotinamide]
inhibition at 100 µM [1, 6]: 0%

CCCCN(CCCC)C(=O)C1CCCN(Cc2ccc(CN3CCCC(C(=O)N(CCCC)CCCC)C3)cc2)C1 (stereo not drawn) [Example 14, α,α'-Bis[3-(N,N--dibutylcarbamoyl)piperidino]-p-xylene Dihydrobromide]
inhibition at 50 µM ([1]; Platelet, human PRP): 49.7%

CCCCCCCCCCN(CCCCCCCCCC)C(=O)C1CCCN(Cc2ccc(CN3CCCC(C(=O)N(CCCCCCCCCC)CCCCCCCCCC)C3)cc2)C1 (stereo not drawn) [Example 16, α,α'-Bis[3-(N,N--didecylcarbamoyl)piperidino]-p-xylene Dihydrobromide]
inhibition at 50 µM ([1]; Platelet, human PRP): 0%

CCCCCCCCCCNC(=O)C1CCCN(Cc2ccc(CN3CCCC(C(=O)NCCCCCCCCCC)C3)cc2)C1 (stereo not drawn) [Example 19, α,α'-Bis[3-(N--decylcarbamoyl)piperidino]-p-xylene Dihydrobromide]
inhibition at 50 µM ([1]; Platelet, human PRP): 0%

CCCCCCCCN(C)C(=O)c1cccnc1 [Example 20, N--Methyl-N--octylnicotinamide]
inhibition at 100 µM [1, 6]: 12.1%

CCCCCCCCN(C)C(=O)C1CCCNC1 (stereo not shown) [Example 21, N--Methyl-N--octylnipecotamide]
inhibition at 100 µM [1, 6]: 49.9%

CCCCCCCCN(C)C(=O)C1CCCN(C)C1 (stereo not shown) [Example 22, 1-Methyl-3-(N--methyl-N--octylcarbamoyl)piperidine Hydriodide]
inhibition at 100 µM [1, 6]: 33.1%

CCCCN(CCCC)C(=O)C1CCCN(C)C1 (stereo not shown) [Example 23, 1-Methyl-3-(N,N--dibutylcarbamoyl)piperidine Hydriodide]
inhibition at 100 µM [1, 6]: 11.8%

CCCCCCCCCCNC(=O)C1CCCN(C)C1 (stereo not shown) [Example 25, 1-Methyl-3-(N--decylcarbamoyl)piperidine Hydriodide]
inhibition at 100 µM [1, 6]: 45.6%

CN1CCCC(C(=O)NCCCCCCCCCCNC(=O)C2CCCN(C)C2)C1 (stereo not shown) [Example 28, 1,10-Bis[N--(1-methylnipecotoyl)amino]decane Dihydriodide]
inhibition at 50 µM ([1]; Platelet, human PRP): 30.9%

CN1CCCC(C(=O)NCCCCCCNC(=O)C2CCCN(C)C2)C1 (stereo not shown) [Example 31, 1,6-Bis[N--(1-methylnipecotoyl)amino]hexane Dihydriodide]
inhibition at 500 µM ([1]; Platelet, human PRP): 17%

C[N+]1(CCCCCCCCCC[N+]2(C)CCCCC2)CCCCC1 [Example 33, 1,10-Bis(N--methylpiperidinium)decane Diiodide]
inhibition at 100 µM ([1]; Homo sapiens, Platelet): 0%

O=C(C1CCCNC1)N1CCN(C(=O)C2CCCNC2)CC1 (stereo not shown) [Example 35, N,N'--Bis(nipecotoyl)piperazine Dihydrobromide]
inhibition at 500 µM ([1]; Platelet, human PRP): 48.9%

CCCCCCCCCCN1CCCC(C(=O)N2CCN(C(=O)C3CCCN(CCCCCCCCCC)C3)CC2)C1 (stereo not shown) [Example 37, N,N'--Bis(1-decylnipecotoyl)piperazine Dihydriodide]
inhibition at 10 µM ([1]; Platelet, 10 μM evaluant, human PRP): 48.3%
inhibition at 50 µM ([1]; Platelet, human PRP): 93.8%
% inhibition of aggregation, thrombin-induced [2]: 88.2%

CN(CCN(C)C(=O)C1CCCNC1)C(=O)C1CCCNC1 (stereo not shown) [Example 39, 1,2-Bis(N-nipecotoyl-N-methylamino)ethane dihydrobromide]
inhibition at 500 µM ([1]; Platelet, human PRP): 46.3%

CCCCCCCCCCN1CCCC(C(=O)N(C)CCN(C)C(=O)C2CCCN(CCCCCCCCCC)C2)C1 (stereo not shown) [Example 40, 1,2-Bis[N--(1-decylnipecotoyl)-N--methylamino]ethane Dihydriodide]
inhibition at 50 µM ([1]; Platelet, human PRP): 82.6%

CCCCCCN1CCCC(C(=O)N(C)CCN(C)C(=O)C2CCCN(CCCCCC)C2)C1 (stereo not shown) [Example 41, 1,2-Bis[N--(1-hexylnipecotoyl)-N--methylamino]ethane Dihydriodide]
inhibition at 50 µM ([1]; Platelet, human PRP): 71.6%

CCCCCCCCCCN1CCCC(C(=O)N(C)CCCCCCN(C)C(=O)C2CCCN(CCCCCCCCCC)C2)C1 (stereo not shown) [Example 42, 1,6-Bis[N--(1-decylnipecotoyl)-N--methylamino]hexane Dihydriodide]
inhibition at 50 µM ([1]; Platelet, human PRP): 85.6%
% inhibition of aggregation, thrombin-induced [2]: 88.3%

CCCCCCCCCCN1CCCC(C(=O)N(CCCC)CCCCCCN(CCCC)C(=O)C2CCCN(CCCCCCCCCC)C2)C1 (stereo not shown) [Example 43, 1,6-Bis[N--(1-decylnipecotoyl)-N--butylamino]hexane Dihydriodide]
inhibition at 50 µM ([1]; Platelet, human PRP): 38.6%

CCCCCCN1CCCC(C(=O)N(CCCC)CCCCCCN(CCCC)C(=O)C2CCCN(CCCCCC)C2)C1 (stereo not shown) [Example 44, 1,6-Bis[N--(1-hexylnipecotoyl)-N--butylamino]hexane Dihydriodide]
inhibition at 50 µM ([1]; Platelet, human PRP): 72.4%

CC(=O)Oc1ccccc1C(=O)O [aspirin, reference compound]
inhibition at 50 µM ([1]; Platelet, human PRP): 24%
deleterious / adverse effects [3]: severe enough to counsel against its use by survivors of myocardial infarction
effect on patient's platelets [4]: incapacitate the patient's platelets for the rest of their life span
% inhibition of aggregation, thrombin-induced [2]: 9%

CN(C)CCCN1c2ccccc2Sc2ccc(Cl)cc21 [chloropromazine, reference compound]
effectiveness in ADP-induced aggregation compared with the piperidine derivatives ([1]; in words): considerably less effective
effectiveness in thrombin-induced aggregation compared with the piperidine derivatives ([2]; in words, FIG. 2): much less effective

OCCN(CCO)c1nc(N2CCCCC2)c2nc(N(CCO)CCO)nc(N3CCCCC3)c2n1 [dipyridamole]
inhibition in ADP-induced aggregation ([5]; 250 μM, Cucuiani et al): 10%

O=C(O)C1CCCNC1 (stereo not shown) [nipecotic acid, Piperidine-3-carboxylic acid]
deleterious / adverse effects [3]: has not been discerned to have deleterious effects

O=C1C(CC[S+]([O-])c2ccccc2)C(=O)N(c2ccccc2)N1c1ccccc1 (stereo not shown) [sulfinpyrazone]
inhibition in ADP-induced aggregation ([5]; 2,470 μM, Packham et al): 0%

— patent publication US4634709A, “Platelet aggregation inhibitory agents and intermediates therefor” (Research Corporation, priority 1984, dated 1987)
